The text below walks through data of BindingDB's records for doi:10.3109/14756366.2011.621122 (Ondokuz Mayis University, 2012).

Common to all, as to assay: CA Activity Assay
What all share (settings): pH 7.4

In assay [1] the target is Carbonic anhydrase 1 (Homo sapiens, UniProt P00915).
The target in assay [2] is T1, Carbonic anhydrase 3 (Bos taurus, UniProt Q3SZX4).
T1 sequence (Q3SZX4 whole entry): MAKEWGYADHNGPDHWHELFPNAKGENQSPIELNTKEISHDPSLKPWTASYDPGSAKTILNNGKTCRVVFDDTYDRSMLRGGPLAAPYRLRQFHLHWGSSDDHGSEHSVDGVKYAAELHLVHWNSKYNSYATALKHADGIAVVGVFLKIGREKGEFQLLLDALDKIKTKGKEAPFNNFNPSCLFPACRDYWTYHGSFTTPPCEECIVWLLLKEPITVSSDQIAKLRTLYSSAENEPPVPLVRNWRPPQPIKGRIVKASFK

Assay [3] has as its target Carbonic anhydrase 2 (Homo sapiens, UniProt P00918).
In assay [4] the target is Carbonic anhydrase 6 (Homo sapiens, UniProt P23280).
Chain of Carbonic anhydrase 6 (P23280 whole entry): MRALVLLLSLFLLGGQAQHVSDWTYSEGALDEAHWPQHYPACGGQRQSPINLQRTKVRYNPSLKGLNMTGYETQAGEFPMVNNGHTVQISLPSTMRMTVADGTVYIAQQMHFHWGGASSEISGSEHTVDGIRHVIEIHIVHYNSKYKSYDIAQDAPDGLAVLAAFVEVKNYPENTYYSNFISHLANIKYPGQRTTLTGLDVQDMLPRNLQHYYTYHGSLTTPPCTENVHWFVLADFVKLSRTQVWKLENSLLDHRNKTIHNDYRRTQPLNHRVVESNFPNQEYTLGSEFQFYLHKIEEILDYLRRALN

Chain of Carbonic anhydrase 1 (P00915 whole entry): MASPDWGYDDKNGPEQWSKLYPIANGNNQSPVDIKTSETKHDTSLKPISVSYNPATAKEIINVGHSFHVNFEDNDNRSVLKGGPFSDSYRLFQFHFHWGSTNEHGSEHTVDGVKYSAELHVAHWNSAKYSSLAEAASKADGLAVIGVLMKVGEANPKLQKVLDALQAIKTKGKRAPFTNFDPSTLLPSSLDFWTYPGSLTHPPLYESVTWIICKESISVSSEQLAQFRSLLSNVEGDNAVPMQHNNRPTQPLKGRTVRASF

Regarding `Cc1ccc(S(=O)(=O)N[C@@H]2C=CCC[C@@H]2O)cc1` [Carbonic anhydrase inhibitors (CAIs), 3], the Ki amounted to 70.2 µM in assay [1], 2.67 µM in assay [2], 3.72 µM in assay [3] and 4.48 µM in assay [4].
As for `O[C@@H]1CCCC[C@@H]1O` [Carbonic anhydrase inhibitors (CAIs), 7], the inhibition constant (Ki) was found to be 21.7 µM in assay [1], 1.19 µM in assay [2], 1.84 µM in assay [3] and 16.7 µM in assay [4].
The corresponding values for `Nc1ccc(S(=O)(=O)Nc2ccccn2)cc1` [MLS000069725] are 26.2 µM, 93.2 µM, 0.348 µM and 11.7 µM.
`Oc1ccccc1` showed an IC50 in assay [2] of 4.63 µM.
Regarding `Cc1ccc(NS(=O)(=O)c2ccc(C)cc2)cc1` [Carbonic anhydrase inhibitors (CAIs), 1], the Ki turned out to be 50.1 µM in assay [1], 2.43 µM in assay [2], 1.03 µM in assay [3] and 24.3 µM in assay [4].
Consider `O[C@@H]1CCCC[C@H]1O` [(1R,2R)-trans-1,2-cyclohexanediol], for which the Ki in assay [2] is 4.28 µM.
In the case of `Cc1ccc(S(=O)(=O)N2[C@@H]3C=CCC[C@@H]3OC2(C)C)cc1` [Carbonic anhydrase inhibitors (CAIs), 4], the inhibition constant (Ki) in assay [1] was 379 µM; in assay [2] it was 57.4 µM; in assay [3] it was 21.7 µM; in assay [4], 275 µM.
The corresponding values for `Cc1ccc(S(=O)(=O)N[C@@H]2[C@@H](O)[C@H](O)CC[C@@H]2O)cc1` [Carbonic anhydrase inhibitors (CAIs), 6] are 9.34 µM, 1.75 µM, 0.82 µM and 3.78 µM.
On to `Cc1ccc(S(=O)(=O)Nc2ccccc2)cc1` [CA inhibitor, 2], for which the Ki in assay [1] was found to be 210 µM; in assay [2], 13.1 µM; in assay [3], 14.3 µM; in assay [4] it was 13.5 µM.
In turn, `Oc1ccccc1O` [1,2-Dihydroxybenzene, XI] displayed an IC50 in assay [2] of 5.79 µM.
On to `Cc1ccc(S(=O)(=O)N[C@@H]2[C@@H](O)[C@@H](O)CC[C@@H]2O)cc1` [Carbonic anhydrase inhibitors (CAIs), 5], for which the inhibitory constant (Ki) came out at 5.48 µM in assay [1], 0.59 µM in assay [2], 0.47 µM in assay [3] and 1.12 µM in assay [4].
Compound `c1ccc(-c2cc(OCCCN3CCCC3)nc(-c3ccccc3)n2)cc1` yielded a 50% inhibitory concentration (IC50) in assay [2] of 66.7 µM.
